{
  "source": "patent US20230405003A1",
  "about": "“APPLICATION OF THYMIDINE DERIVATIVE IN PREPARATION OF DRUGS” (ONQUALITY PHARMACEUTICALS CHINA LTD., priority 2020, published 2023)",
  "data": [
    {"test_system": "HaCaT cells", "experiment": "Relief of 5-FU proliferative toxicity to HaCaT cells (CCK-8 cell survival)", "format": "cell-based", "details": "Homo sapiens, HaCaT; increase vs Group of 5-FU; 5-FU 20 μM; compound 1 μM; 48 h; read-out: Cell Survival Rate", "description": "(§1) The cultured skin cell HaCaTs were digested, counted, and inoculated into a 96-well plate with 5000-10000 cells in each well. After 24 h of culture, the wells were divided into Group of blank solvent control, Group of 5-FU, Group of 5-FU+thymidine derivative, Group of 5-FU+the combination of thymidine derivative and uridine derivative. […] adding a solution of 5-FU and a solution of thymidine derivative (the final concentrations of 5-FU and thymidine derivative are shown in Table 3, the solution of thymidine is an aqueous solution, while the solutions of thymidine derivatives are all DMSO solutions); Group of 5-FU+the combination of thymidine derivative and uridine derivative: adding a solution of 5-FU and a mixed solution of thymidine derivative and uridine derivative (the final concentrations of the solution of 5-FU and the mixed solution of thymidine derivative+uridine derivative are shown in Table 3, the solution of thymidine is an aqueous solution, while the mixed solutions of thymidine derivative+uridine derivative are all DMSO solutions); Group of blank solvent control: adding the same type of solution as those of the corresponding Group of 5-FU or Group of 5-FU+thymidine derivative (or the mixed solution of thymidine derivative+uridine derivative) in equal volume. Group of blank solvent control was used as control to exclude the influence of the solvents in Group of 5-FU and Group of 5-FU+thymidine derivative (or the mixed solution of thymidine derivative+uridine derivative) on the results. After additional 48 hours of culture, a Cell Counting Kit-8 (CCK-8) detection kit (C0037, purchased from Shanghai Beyotime Biotechnology) is used to determine the cell survival rate, thereby calculating the proliferative toxicity of 5-Fu/5-DFUR on cells and the relieving effect of the thymidine derivative (or the mixed solution of thymidine derivative+uridine derivative) on the proliferative toxicity. Using GraphPad Prism 6.0 software, the results were statistically analyzed by t-test and plotted.\n(§2) Table 3 lists the combinations of 5-FU and thymidine derivative (or the mixed solution of thymidine derivative+uridine derivative), and the corresponding experimental results (wherein the data in the column of cell survival indicate the corresponding increased percentage of the cell survivals of Group of 5-FU+thymidine derivative or Group of 5-FU+the combination of thymidine derivative and uridine derivative compared with the Group of 5-FU). FIGS. 3-10 list the experimental results of several representative compounds.\n(§3) The effect of thymidine derivative or a combination of thymidine derivative and uridine derivative on relieving the proliferative toxicity of a chemotherapeutical drug (5-FU) to HaCaT cells was tested according to the method in Examples 2-29. The test thymidine derivative or the combination of thymidine derivative and uridine derivative, as well as the final concentration of the test compounds were shown in Table 7.\nas §2, with “7” for “3”, “15-21” for “3-10”, “exemplary” for “representative”", "units": {"activation at 1 µM": "%"}, "values": [
      {"smiles": "Cc1cn([C@H]2C[C@H](OC(=O)Oc3ccccc3)[C@@H](COC(=O)Oc3ccccc3)O2)c(=O)[nH]c1=O", "note": "[T14]", "activation at 1 µM": "12 to 20"},
      {"smiles": "Cc1cn([C@H]2C[C@H](OC(=O)NC3CC3)[C@@H](COC(=O)NC3CC3)O2)c(=O)[nH]c1=O", "note": "[T15]", "activation at 1 µM": "13 to 20"},
      {"smiles": "Cc1cn([C@H]2C[C@H](OC(=O)Nc3ccccc3)[C@@H](COC(=O)Nc3ccccc3)O2)c(=O)[nH]c1=O", "note": "[T16]", "activation at 1 µM": "0 to 5"},
      {"smiles": "CC(=O)NC[C@H]1O[C@@H](n2cc(C)c(=O)[nH]c2=O)C[C@@H]1OC(C)=O", "note": "[T17]", "activation at 1 µM": "15 to 25"},
      {"smiles": "Cc1cn([C@H]2C[C@H](O)[C@@H](CO[Si](C)(C)C(C)(C)C)O2)c(=O)[nH]c1=O", "note": "[T18]", "activation at 1 µM": "6 to 12"},
      {"smiles": "Cc1cn([C@H]2C[C@H](O)[C@@H](COC(=O)OCc3ccccc3)O2)c(=O)[nH]c1=O", "note": "[T19]", "activation at 1 µM": "35 to 45"},
      {"smiles": "Cc1cn([C@H]2C[C@H](OC(=O)OCC(C)C)[C@@H](COC(=O)OCC(C)C)O2)c(=O)[nH]c1=O", "note": "[T20]", "activation at 1 µM": "48 to 58"},
      {"smiles": "Cc1cn([C@H]2C[C@H](OC(=O)OCC(C)(C)C)[C@@H](COC(=O)OCC(C)(C)C)O2)c(=O)[nH]c1=O", "note": "[T21]", "activation at 1 µM": "5 to 13"},
      {"smiles": "Cc1cn([C@H]2C[C@H](OC(=O)OC(C)C)[C@@H](COC(=O)OC(C)C)O2)c(=O)[nH]c1=O", "note": "[T22]", "activation at 1 µM": "2 to 7"},
      {"smiles": "Cc1cn([C@H]2C[C@H](OC(=O)OC(C)(C)C)[C@@H](COC(=O)OC(C)(C)C)O2)c(=O)[nH]c1=O", "note": "[T23]", "activation at 1 µM": "2 to 7"},
      {"smiles": "Cc1cn([C@H]2C[C@H](OC(=O)C(C)(C)C)[C@@H](COC(=O)C(C)(C)C)O2)c(=O)[nH]c1=O", "note": "[T24]", "activation at 1 µM": "27 to 35"}
    ]},
    {"test_system": "HaCaT cells", "experiment": "Relief of 5-FU proliferative toxicity to HaCaT cells (CCK-8 cell survival)", "format": "cell-based", "details": "Homo sapiens, HaCaT; increase vs Group of 5-FU; 5-FU 20 μM; compound 10 μM; 48 h; read-out: Cell Survival Rate", "description": "as §1, §2, §3\nas §2, with “7” for “3”, “15-21” for “3-10”, “exemplary” for “representative”", "units": {"activation at 10 µM": "%"}, "values": [
      {"smiles": "Cc1cn([C@H]2C[C@H](OC(=O)Oc3ccccc3)[C@@H](COC(=O)Oc3ccccc3)O2)c(=O)[nH]c1=O", "note": "[T14]", "activation at 10 µM": "30 to 40"},
      {"smiles": "Cc1cn([C@H]2C[C@H](OC(=O)NC3CC3)[C@@H](COC(=O)NC3CC3)O2)c(=O)[nH]c1=O", "note": "[T15]", "activation at 10 µM": "13 to 20"},
      {"smiles": "Cc1cn([C@H]2C[C@H](OC(=O)Nc3ccccc3)[C@@H](COC(=O)Nc3ccccc3)O2)c(=O)[nH]c1=O", "note": "[T16]", "activation at 10 µM": "7 to 14"},
      {"smiles": "CC(=O)NC[C@H]1O[C@@H](n2cc(C)c(=O)[nH]c2=O)C[C@@H]1OC(C)=O", "note": "[T17]", "activation at 10 µM": "18 to 26"},
      {"smiles": "Cc1cn([C@H]2C[C@H](O)[C@@H](CO[Si](C)(C)C(C)(C)C)O2)c(=O)[nH]c1=O", "note": "[T18]", "activation at 10 µM": "7 to 15"},
      {"smiles": "Cc1cn([C@H]2C[C@H](O)[C@@H](COC(=O)OCc3ccccc3)O2)c(=O)[nH]c1=O", "note": "[T19]", "activation at 10 µM": "60 to 70"},
      {"smiles": "Cc1cn([C@H]2C[C@H](OC(=O)OCC(C)C)[C@@H](COC(=O)OCC(C)C)O2)c(=O)[nH]c1=O", "note": "[T20]", "activation at 10 µM": "58 to 66"},
      {"smiles": "Cc1cn([C@H]2C[C@H](OC(=O)OCC(C)(C)C)[C@@H](COC(=O)OCC(C)(C)C)O2)c(=O)[nH]c1=O", "note": "[T21]", "activation at 10 µM": "19 to 26"},
      {"smiles": "Cc1cn([C@H]2C[C@H](OC(=O)OC(C)C)[C@@H](COC(=O)OC(C)C)O2)c(=O)[nH]c1=O", "note": "[T22]", "activation at 10 µM": "10 to 17"},
      {"smiles": "Cc1cn([C@H]2C[C@H](OC(=O)OC(C)(C)C)[C@@H](COC(=O)OC(C)(C)C)O2)c(=O)[nH]c1=O", "note": "[T23]", "activation at 10 µM": "5 to 11"},
      {"smiles": "Cc1cn([C@H]2C[C@H](OC(=O)C(C)(C)C)[C@@H](COC(=O)C(C)(C)C)O2)c(=O)[nH]c1=O", "note": "[T24]", "activation at 10 µM": "21 to 27"}
    ]},
    {"test_system": "HaCaT cells", "experiment": "Relief of 5-FU proliferative toxicity to HaCaT cells (CCK-8 cell survival)", "format": "cell-based", "details": "Homo sapiens, HaCaT; increase vs Group of 5-FU; 5-FU 20 μM; compound 100 μM; 48 h; read-out: Cell Survival Rate", "description": "as §1, §2, §3\nas §2, with “7” for “3”, “15-21” for “3-10”, “exemplary” for “representative”", "units": {"activation at 100 µM": "%"}, "values": [
      {"smiles": "Cc1cn([C@H]2C[C@H](OC(=O)Oc3ccccc3)[C@@H](COC(=O)Oc3ccccc3)O2)c(=O)[nH]c1=O", "note": "[T14]", "activation at 100 µM": "8 to 15"},
      {"smiles": "Cc1cn([C@H]2C[C@H](OC(=O)NC3CC3)[C@@H](COC(=O)NC3CC3)O2)c(=O)[nH]c1=O", "note": "[T15]", "activation at 100 µM": "20 to 30"},
      {"smiles": "CC(=O)NC[C@H]1O[C@@H](n2cc(C)c(=O)[nH]c2=O)C[C@@H]1OC(C)=O", "note": "[T17]", "activation at 100 µM": "25 to 35"},
      {"smiles": "Cc1cn([C@H]2C[C@H](O)[C@@H](COC(=O)OCc3ccccc3)O2)c(=O)[nH]c1=O", "note": "[T19]", "activation at 100 µM": "58 to 67"},
      {"smiles": "Cc1cn([C@H]2C[C@H](OC(=O)OCC(C)C)[C@@H](COC(=O)OCC(C)C)O2)c(=O)[nH]c1=O", "note": "[T20]", "activation at 100 µM": "55 to 65"},
      {"smiles": "Cc1cn([C@H]2C[C@H](OC(=O)OC(C)C)[C@@H](COC(=O)OC(C)C)O2)c(=O)[nH]c1=O", "note": "[T22]", "activation at 100 µM": "9 to 16"},
      {"smiles": "Cc1cn([C@H]2C[C@H](OC(=O)OC(C)(C)C)[C@@H](COC(=O)OC(C)(C)C)O2)c(=O)[nH]c1=O", "note": "[T23]", "activation at 100 µM": "20 to 26"}
    ]},
    {"test_system": "HaCaT cells", "experiment": "Relief of 5-FU proliferative toxicity to HaCaT cells (CCK-8 cell survival)", "format": "cell-based", "details": "Homo sapiens, HaCaT; increase vs Group of 5-FU; 5-FU 20 μM; compound 200 μM; 48 h; read-out: Cell Survival Rate", "description": "as §1, §2, §3\nas §2, with “7” for “3”, “15-21” for “3-10”, “exemplary” for “representative”", "units": {"activation at 200 µM": "%"}, "values": [
      {"smiles": "CC(=O)NC[C@H]1O[C@@H](n2cc(C)c(=O)[nH]c2=O)C[C@@H]1OC(C)=O", "note": "[T17]", "activation at 200 µM": "30 to 40"}
    ]},
    {"test_system": "HaCaT cells", "experiment": "Relief of 5-FU proliferative toxicity to HaCaT cells (CCK-8 cell survival)", "format": "cell-based", "details": "Homo sapiens, HaCaT; increase vs Group of 5-FU; 5-FU 20 μM; compound 500 μM; 48 h; read-out: Cell Survival Rate", "description": "as §1, §2, §3\nas §2, with “7” for “3”, “15-21” for “3-10”, “exemplary” for “representative”", "units": {"activation at 500 µM": "%"}, "values": [
      {"smiles": "Cc1cn([C@H]2C[C@H](OC(=O)NC3CC3)[C@@H](COC(=O)NC3CC3)O2)c(=O)[nH]c1=O", "note": "[T15]", "activation at 500 µM": "25 to 35"},
      {"smiles": "CC(=O)NC[C@H]1O[C@@H](n2cc(C)c(=O)[nH]c2=O)C[C@@H]1OC(C)=O", "note": "[T17]", "activation at 500 µM": "35 to 45"},
      {"smiles": "Cc1cn([C@H]2C[C@H](O)[C@@H](COC(=O)OCc3ccccc3)O2)c(=O)[nH]c1=O", "note": "[T19]", "activation at 500 µM": "35 to 45"}
    ]},
    {"test_system": "HaCaT cells", "experiment": "Relief of 5-FU proliferative toxicity to HaCaT cells (CCK-8 cell survival)", "format": "cell-based", "details": "Homo sapiens, HaCaT; increase vs Group of 5-FU; 5-FU 20 μM; compound 1000 μM; 48 h; read-out: Cell Survival Rate", "description": "as §1, §2, §3\nas §2, with “7” for “3”, “15-21” for “3-10”, “exemplary” for “representative”", "units": {"activation at 1000 µM": "%"}, "values": [
      {"smiles": "Cc1cn([C@H]2C[C@H](OC(=O)NC3CC3)[C@@H](COC(=O)NC3CC3)O2)c(=O)[nH]c1=O", "note": "[T15]", "activation at 1000 µM": "9 to 16"}
    ]}
  ]
}
